Assay results as given in paper PMC3742645, “The Effect of Polyhydroxylated Alkaloids on Maltase-Glucoamylase” (PLoS ONE, 2013).

Biological target: T1, ntMGAM (purchased as maltase-glucoamylase from rice, EC 3.2.1.20, Sigma G9259)
T1 construct: gene Os06g0675700; commercial native rice alpha-glucosidase; no human protein source or expression described
Assay: NMR transverse relaxation (CPMG) titration
Assay type: binding
Settings: pH 6.8, 310 K, 10 mM sodium phosphate, 10% D2O, protein 18 μM; signal H-9; unit printed as M^-1 under a Kd heading
From the text: NMR transverse relaxation (CPMG) titration on ntMGAM (purchased as maltase-glucoamylase from rice, EC 3.2.1.20, Sigma G9259)

## C[C@H]1O[C@H](O[C@H]2[C@H](O)[C@@H](O)[C@@H](O[C@H]3[C@H](O)[C@@H](O)C(O)O[C@@H]3CO)O[C@@H]2CO)[C@H](O)[C@@H](O)[C@@H]1N[C@H]1C=C(CO)[C@@H](O)[C@H](O)[C@H]1O (stereo partly shown) [acarbose]
  K d(M^-1): (5.4±0.1)×10^−5 M^−1
